Reference: article PMC10331583, “Control of fibrosis with enhanced safety via asymmetric inhibition of prolyl‐tRNA synthetase 1” (EMBO Molecular Medicine, 2023)
Several values for one entry are separate records, joined by “and”; a condition that tells them apart may be missing. Equal values may be shown once. Read-outs that look alike come from different tables or passages of the source.

Legend:
[1] = system: TNT Quick Coupled Transcription/Translation System (luciferase synthesis); format: biochemical
WI‐26 VA4 cells = assay: Puromycin incorporation assay; format: cell-based, human; settings: for activity at 0.003 µM: WI26VA4, 3 nM; for activity at 0.01 µM: WI26VA4, 10 nM; for activity at 0.03 µM: WI26VA4, 30 nM; for activity at 0.1 µM: WI26VA4, 100 nM; for activity at 0.3 µM: WI26VA4, 300 nM; for activity at 0.5 µM: WI26VA4, 500 nM; for activity at 1 µM: WI26VA4, 1000 nM
Protocol: After being rinsed with cold PBS twice, the cells were collected and resuspended in 200 μl of the carbonate bicarbonate buffer (Sigma Aldrich, C3041‐50CAP) with protease inhibitor. The cell lysates were obtained by sonication and centrifugation at 20,000 g for 15 min at 4°C. After protein quantification using a Pierce™ BCA Protein Assay Kit (Thermo Fisher Scientific, 23225), 400 ng of the proteins was coated to ELISA plates for 18 h at 4°C. […] The plates were rinsed with the washing buffer for three times after each antibody incubation step. […] The amount of puromycin incorporated in proteins was determined by measuring the absorbance at 450 nm (reference wavelength at 620 nm). Experimental values marked in red with strikethrough text in the Figure Source Data file were excluded from the analysis. These values were determined by considering the values of biological and technical replicates under the same condition, as well as the values at the former and later chemical concentrations.

[2] = Homo sapiens, read-out: Puromycin, % of control, average
[3] = Homo sapiens, read-out: Puromycin, % of control, single replicate

## Cc1c(Br)cnc2c1ncn2CC(=O)C[C@H]1NCCC[C@@H]1O [DWN11761]
[1]; 6 nM, Experiment #1, replicates, 0.006 µM
  TNT-luciferase % of control: 103.28 % of control and 100.82 % of control and 110.66 % of control
[1]; 6 nM, Experiment #2, replicates, 0.006 µM
  TNT-luciferase % of control: 86.60 % of control and 91.24 % of control and 93.56 % of control
[1]; 6 nM, Experiment #3, replicates, 0.006 µM
  TNT-luciferase % of control: 100.46 % of control and 97.13 % of control and 93.79 % of control
[1]; 6 nM
  TNT-luciferase % of control, average: 97.50 % of control
[1]; 20 nM, Experiment #1, replicates, 0.02 µM
  TNT-luciferase % of control: 108.20 % of control and 109.84 % of control (2×)
[1]; 20 nM, Experiment #2, replicates, 0.02 µM
  TNT-luciferase % of control: 85.82 % of control and 94.33 % of control and 98.20 % of control
[1]; 20 nM, Experiment #3, replicates, 0.02 µM
  TNT-luciferase % of control: 98.25 % of control and 93.99 % of control and 91.88 % of control
[1]; 20 nM
  TNT-luciferase % of control, average: 98.93 % of control
[1]; 60 nM, Experiment #1, replicates, 0.06 µM
  TNT-luciferase % of control: 130.33 % of control and 132.79 % of control and 131.97 % of control
[1]; 60 nM, Experiment #2, replicates, 0.06 µM
  TNT-luciferase % of control: 90.46 % of control and 98.97 % of control and 95.10 % of control
[1]; 60 nM, Experiment #3, replicates, 0.06 µM
  TNT-luciferase % of control: 100.65 % of control and 91.36 % of control and 86.32 % of control
[1]; 60 nM
  TNT-luciferase % of control, average: 106.44 % of control
[1]; 200 nM, Experiment #1, replicates, 0.2 µM
  TNT-luciferase % of control: 106.56 % of control and 109.84 % of control and 110.66 % of control
[1]; 200 nM, Experiment #2, replicates, 0.2 µM
  TNT-luciferase % of control: 68.51 % of control and 71.29 % of control and 70.98 % of control
[1]; 200 nM, Experiment #3, replicates, 0.2 µM
  TNT-luciferase % of control: 96.73 % of control and 90.18 % of control and 101.79 % of control
[1]; 200 nM
  TNT-luciferase % of control, average: 91.84 % of control
[1]; 600 nM, Experiment #1, replicates, 0.6 µM
  TNT-luciferase % of control: 44.18 % of control and 45.33 % of control and 50.74 % of control
[1]; 600 nM, Experiment #2, replicates, 0.6 µM
  TNT-luciferase % of control: 46.24 % of control and 47.63 % of control and 53.81 % of control
[1]; 600 nM, Experiment #3, replicates, 0.6 µM
  TNT-luciferase % of control: 54.77 % of control and 51.07 % of control and 57.11 % of control
[1]; 600 nM
  TNT-luciferase % of control, average: 50.10 % of control
[1]; 2000 nM, Experiment #1, replicates, 2 µM
  TNT-luciferase % of control: 2.25 % of control and 2.32 % of control and 2.42 % of control
[1]; 2000 nM, Experiment #2, replicates, 2 µM
  TNT-luciferase % of control: 3.17 % of control and 3.09 % of control and 3.97 % of control
[1]; 2000 nM, Experiment #3, replicates, 2 µM
  TNT-luciferase % of control: 3.31 % of control and 3.19 % of control and 3.30 % of control
[1]; 2000 nM
  TNT-luciferase % of control, average: 3.00 % of control
[1]; 6000 nM, Experiment #1, replicates, 6 µM
  TNT-luciferase % of control: 0.05 % of control and 0.047 % of control and 0.06 % of control
[1]; 6000 nM, Experiment #2, replicates, 6 µM
  TNT-luciferase % of control: 0.15 % of control and 0.14 % of control (2×)
[1]; 6000 nM, Experiment #3, replicates, 6 µM
  TNT-luciferase % of control: 0.14 % of control (2×) and 0.12 % of control
[1]; 6000 nM
  TNT-luciferase % of control, average: 0.11 % of control
[1]; 20000 nM, Experiment #1, replicates, 20 µM
  TNT-luciferase % of control: -0.0091 % of control and -0.014 % of control and -0.00199 % of control
[1]; 20000 nM, Experiment #2, replicates, 20 µM
  TNT-luciferase % of control: 0.00206 % of control and -0.00211 % of control and -0.00412 % of control
[1]; 20000 nM, Experiment #3, replicates, 20 µM
  TNT-luciferase % of control: 0.02 % of control and -0.0067 % of control and 0.00433 % of control
[1]; 20000 nM
  TNT-luciferase % of control, average: -0.00128 % of control
[1]; log(inhibitor) vs. response, variable slope (four parameters), concentration in nM
  TNT-luciferase LogIC50 (best-fit value): 2.775
[1]; log(inhibitor) vs. response, variable slope (four parameters), unit from head concentration (nM), read-out: TNT-luciferase IC50 (best-fit value)
  IC50: 595 nM
WI‐26 VA4 cells; 3 nM, 0.003 µM
  Puromycin, % of control, single replicate: 104.76 % of control and 100.60 % of control and 105.06 % of control and 105.49 % of control and 105.21 % of control and 111.96 % of control and 104.24 % of control
WI‐26 VA4 cells; 10 nM, 0.01 µM
  Puromycin, % of control, single replicate: 99.99 % of control and 99.81 % of control and 108.66 % of control and 104.16 % of control and 106.55 % of control and 105.60 % of control and 106.56 % of control
WI‐26 VA4 cells; 30 nM, 0.03 µM
  Puromycin, % of control, single replicate: 101.89 % of control and 99.32 % of control and 110.82 % of control and 110.04 % of control and 108.90 % of control and 103.15 % of control and 106.42 % of control
WI‐26 VA4 cells; 100 nM, 0.1 µM
  Puromycin, % of control, single replicate: 112.55 % of control and 117.55 % of control and 127.48 % of control and 125.28 % of control and 125.52 % of control and 127.16 % of control and 126.25 % of control
WI‐26 VA4 cells; 300 nM, 0.3 µM
  Puromycin, % of control, single replicate: 109.98 % of control and 112.11 % of control and 119.25 % of control and 120.23 % of control and 124.85 % of control and 125.66 % of control and 106.56 % of control
WI‐26 VA4 cells; 500 nM, 0.5 µM
  Puromycin, % of control, single replicate: 54.77 % of control and 53.35 % of control and 56.10 % of control and 56.57 % of control and 57.43 % of control and 59.14 % of control and 54.96 % of control
WI‐26 VA4 cells; 1000 nM, 1 µM
  Puromycin, % of control, single replicate: 28.04 % of control and 30.25 % of control and 30.46 % of control and 30.97 % of control and 31.52 % of control and 29.73 % of control and 28.78 % of control
WI‐26 VA4 cells; 3000 nM, 3 µM
  Puromycin, % of control, single replicate: 0.34 % of control and -0.19 % of control and -0.45 % of control and 0.86 % of control and 1.02 % of control and 0.90 % of control and 0.51 % of control and -0.71 % of control
WI‐26 VA4 cells; 10000 nM, 10 µM
  Puromycin, % of control, single replicate: 0.48 % of control and -0.27 % of control and -0.54 % of control and 1.84 % of control and 0.67 % of control and 0.24 % of control and 0.33 % of control and 0.60 % of control
WI‐26 VA4 cells; 100000 nM, 100 µM
  Puromycin, % of control, single replicate: 0.17 % of control and 0.43 % of control and -0.14 % of control and 0.04 % of control and 0.27 % of control and -0.04 % of control and 0.92 % of control and 0.65 % of control
WI‐26 VA4 cells; [2]
  activity at 0.003 µM: 105%
  activity at 0.01 µM: 104%
  activity at 0.03 µM: 105%
  activity at 0.1 µM: 122%
  activity at 0.3 µM: 117%
  activity at 0.5 µM: 55.6%
  activity at 1 µM: 29.5%
WI‐26 VA4 cells; [3]
  activity at 0.003 µM: 104%
  activity at 0.01 µM: 101%
  activity at 0.03 µM: 103%
  activity at 0.1 µM: 114%
  activity at 0.3 µM: 115%
  activity at 0.5 µM: 52.3%
  activity at 1 µM: 26.2%
WI‐26 VA4 cells; Homo sapiens, WI26VA4, 3000 nM, read-out: Puromycin, % of control, average
  activity at 3 µM: 0.29%
WI‐26 VA4 cells; Homo sapiens, WI26VA4, 10000 nM, read-out: Puromycin, % of control, average
  activity at 10 µM: 0.42%
